For this data set, the system named is alanine aminotransferase (ALAT) levels. Kind of data set: Clinical trials, longer-term ximelagatran treatment: alanine aminotransferase (ALAT) elevation. The data set is classed as in vivo, human. The source says:
Phase III clinical trials have been performed using fixed doses of melagatran and ximelagatran for the prevention of VTE in hip or knee replacement surgery. In addition, clinical trials have been performed using ximelagatran for the treatment and long-term secondary prevention of VTE, and for the prevention of stroke in patients with non-valvular atrial fibrillation. Ximelagatran has also been tested for secondary thrombosis prophylaxis post-myocardial infarction/acute coronary syndrome (ACS).
Alanine aminotransferrase (ALAT) is an enzyme mostly expressed in the liver (EC 2.6.1.2). It is also called serum glutamate pyruvate transaminase (SGPT) or alanine transaminase (ALT). This enzyme is release into the plasma by liver cell death, which is a normal event. However, when liver cell death increases, ALAT levels rise above the normal range. The spill-over of this enzyme into blood is routinely measured as a marker of abnormal liver-cell damage. For example, alcoholic or viral hepatitis will increase ALAT levels, as will severe congestive heart failure. ALAT is also markedly raised in hepatitis and other acute liver damage. An elevated ALAT in the presence of normal levels of plasma alkaline phosphatase helps distinguish liver disease caused by liver-cell damage from diseases caused by problems in biliary ducts. Elevations of ALAT are normally measured in multiples of the upper limit of normal (ULN), with a reference range of 15-45 U/L in most laboratories. In 1987, in a study of 19,877 healthy Air Force recruits, only 99 (0.5%) had confirmed ALAT elevations (as reviewed in Green & Flamm (2002) Gastroenterology 123:1367-1384).
The increase in ALAT values with ximelagatran, usually occurred within the first 6 months of treatment and were mainly asymptomatic. […] Subject to the future regulatory approval of ximelagatran, regular liver function testing (LFT) using an appropriate algorithm may be required if ximelagatran is used for treatment periods exceeding a month. […]

In the case of `CCOC(=O)CN[C@@H](C(=O)N1CC[C@H]1C(=O)NCc1ccc(/C(N)=N\O)cc1)C1CCCCC1` [ximelagatran, EtOOC—CH2—(R)Cgl-Aze-Pab-OH], the “patients exhibiting ALAT 3-fold or more above the upper limit of normal (≧3×ULN)” value (longer-term treatment (>35 days), 1.2% in the comparator groups) amounted to 7.9%. Also, the “reversibility of the increases in ALAT” value (regardless of whether treatment was continued or discontinued) was “reversible in most patients”. For the same compound, under “usually, time from start of treatment”, the “time of occurrence of the increase in ALAT values” is not above 6 months.

These data come from patent US20090054394A1, “POLYMORPHISMS IN MGST3 ARE ASSOCIATED WITH ELEVATED ALAT LEVELS AFTER XIMELAGATRAN TREATMENT” (priority 2005, published 2009).
